Assay results: US6953813B1, “2-Aminotetralin derivatives for the therapy of glaucoma” (Chiesi Farmaceutici S.p.A., priority 1999, dated 2005)

Columns and labels:
[1] = test system: normotensive Dutch Belted rabbits; test: Intraocular pressure (IOP) after single dose in normotensive rabbits; type: in vivo, rabbit
Description: Water (pH 4.5, made isotonic with sodium chloride), was selected as vehicle for the IOP-studies.
Five concentrations (0.01, 0.05, 0.2, 0.5 and 1.0% w/v) of CHF 1035 were studied. Brimonidine (0.2% w/v) was used as a positive, and vehicle (water pH 4.5) as a negative control.
The experimental animals used were normotensive Dutch Belted rabbits of either gender (n=6). A single drop (25 μl) of the test solution was instilled unilaterally into the left eye (treated eye). IOP of the rabbits (treated and untreated eyes) was measured at 1 and 0 h before, and at 0.5, 1, 2, 3, 4, 5, 6 and 7 h after topical eyedrop administration. IOP at the time of eyedrop administration (0 h) was used as a baseline value. IOP was measured using a BioRad Pneumatonometer. More detailed description of the IOP measurement procedure can be found in Pharm. Res. 14, 1738-1743, 1997 and Curr. Eye Res. 14, 791-797, 1995. All the studies were set up using a randomized crossover design. At least 72 h of wash-out time was allowed for each rabbit between dosings. The irritation caused by an instilled eyedrop were evaluated by recording the extent of eyelid closure after topical eyedrop administration.

[2] = test system: New-Zealand albino rabbits; test: IOP after single dose in rabbits with water-increased IOP; type: in vivo, rabbit; details: two drops of 5% solution per eye, one hour before 200 ml oral water
Description: A study versus placebo was carried out in 20 New-Zealand albino rabbits to evaluate the effects of CHF 1035 after single administration. Basal intraocular pressure (IOP) was measured in anaesthetized rabbits in both eyes. Each eye received two drops of physiological solution containing 5% of the drug. Control animals received only physiological solution. After one hour, the animals were administered by oral route with a total amount of 200 ml of distilled water. IOP increased within about one hour and normalized after about 3 hours. As no differences in IOP were observed between the two eyes, the respective tonometric curves were superimposed. IOP measurements were carried out by using a Goldman tonometer and were repeated one hour after the administration of water.
Values are expressed as mean (SE^132 1.6-2.7). The total number of eyes per group is in brackets.

CNC1CCc2c(ccc(OC(=O)C(C)C)c2OC(=O)C(C)C)C1 (racemic) [CHF 1035, (±)-(R,S)-5,6-diisobutyryloxy-2-methylaminotetralin]
IOP changes (mean ± SEM) in the treated eye ([1]; 1.0% w/v, 240 min): −4.9 ± 1.5 mmHg | IOP changes (mean ± SEM) in the treated eye ([1]; 1.0% w/v, 300 min): −5.8 ± 1.6 mmHg | IOP changes (mean ± SEM) in the treated eye ([1]; 1.0% w/v, 360 min): −6.6 ± 1.6 mmHg | IOP changes (mean ± SEM) in the treated eye ([1]; 1.0% w/v, 420 min): −5.3 ± 1.5 mmHg | IOP changes (mean ± SEM) in the untreated eye ([1]; 0.01% w/v, 0 min): 0.0 ± 0.0 mmHg | IOP changes (mean ± SEM) in the untreated eye ([1]; 0.01% w/v, 30 min): −1.0 ± 1.1 mmHg | IOP changes (mean ± SEM) in the untreated eye ([1]; 0.01% w/v, 60 min): −1.9 ± 1.2 mmHg | IOP changes (mean ± SEM) in the untreated eye ([1]; 0.01% w/v, 120 min): −1.6 ± 1.0 mmHg | IOP changes (mean ± SEM) in the untreated eye ([1]; 0.01% w/v, 180 min): −0.5 ± 0.7 mmHg | IOP changes (mean ± SEM) in the untreated eye ([1]; 0.01% w/v, 240 min): −1.4 ± 0.7 mmHg | IOP changes (mean ± SEM) in the untreated eye ([1]; 0.01% w/v, 300 min): −1.7 ± 0.4 mmHg | IOP changes (mean ± SEM) in the untreated eye ([1]; 0.01% w/v, 360 min): 0.0 ± 0.6 mmHg | IOP changes (mean ± SEM) in the untreated eye ([1]; 0.01% w/v, 420 min): 0.4 ± 0.7 mmHg | IOP changes (mean ± SEM) in the untreated eye ([1]; 0.05% w/v, 0 min): 0.0 ± 0.0 mmHg | IOP changes (mean ± SEM) in the untreated eye ([1]; 0.05% w/v, 30 min): 0.0 ± 0.6 mmHg | IOP changes (mean ± SEM) in the untreated eye ([1]; 0.05% w/v, 60 min): 0.1 ± 0.7 mmHg | IOP changes (mean ± SEM) in the untreated eye ([1]; 0.05% w/v, 120 min): −1.5 ± 0.8 mmHg | IOP changes (mean ± SEM) in the untreated eye ([1]; 0.05% w/v, 180 min): −0.4 ± 1.0 mmHg | IOP changes (mean ± SEM) in the untreated eye ([1]; 0.05% w/v, 240 min): −1.0 ± 0.4 mmHg | IOP changes (mean ± SEM) in the untreated eye ([1]; 0.05% w/v, 300 min): −1.9 ± 0.9 mmHg | IOP changes (mean ± SEM) in the untreated eye ([1]; 0.05% w/v, 360 min): −0.6 ± 1.2 mmHg | IOP changes (mean ± SEM) in the untreated eye ([1]; 0.05% w/v, 420 min): 0.3 ± 0.7 mmHg | IOP changes (mean ± SEM) in the untreated eye ([1]; 0.2% w/v, 0 min): 0.0 ± 0.0 mmHg | IOP changes (mean ± SEM) in the untreated eye ([1]; 0.2% w/v, 30 min): 1.0 ± 0.8 mmHg | IOP changes (mean ± SEM) in the untreated eye ([1]; 0.2% w/v, 60 min): 0.5 ± 1.2 mmHg | IOP changes (mean ± SEM) in the untreated eye ([1]; 0.2% w/v, 120 min): 0.0 ± 0.9 mmHg | IOP changes (mean ± SEM) in the untreated eye ([1]; 0.2% w/v, 180 min): −1.5 ± 1.2 mmHg | IOP changes (mean ± SEM) in the untreated eye ([1]; 0.2% w/v, 240 min): −1.6 ± 1.1 mmHg | IOP changes (mean ± SEM) in the untreated eye ([1]; 0.2% w/v, 300 min): −1.1 ± 1.1 mmHg | IOP changes (mean ± SEM) in the untreated eye ([1]; 0.2% w/v, 360 min): −0.7 ± 1.0 mmHg | IOP changes (mean ± SEM) in the untreated eye ([1]; 0.2% w/v, 420 min): 0.0 ± 0.8 mmHg | IOP changes (mean ± SEM) in the untreated eye ([1]; 0.5% w/v, 0 min): 0.0 ± 0.0 mmHg | IOP changes (mean ± SEM) in the untreated eye ([1]; 0.5% w/v, 30 min): 2.9 ± 0.8 mmHg | IOP changes (mean ± SEM) in the untreated eye ([1]; 0.5% w/v, 60 min): 2.4 ± 0.7 mmHg | IOP changes (mean ± SEM) in the untreated eye ([1]; 0.5% w/v, 120 min): 1.4 ± 0.4 mmHg | IOP changes (mean ± SEM) in the untreated eye ([1]; 0.5% w/v, 180 min): 0.0 ± 0.5 mmHg | IOP changes (mean ± SEM) in the untreated eye ([1]; 0.5% w/v, 240 min): −0.2 ± 0.7 mmHg | IOP changes (mean ± SEM) in the untreated eye ([1]; 0.5% w/v, 300 min): −0.9 ± 0.4 mmHg | IOP changes (mean ± SEM) in the untreated eye ([1]; 0.5% w/v, 360 min): −0.7 ± 0.6 mmHg | IOP changes (mean ± SEM) in the untreated eye ([1]; 0.5% w/v, 420 min): −0.2 ± 0.3 mmHg | IOP changes (mean ± SEM) in the untreated eye ([1]; 1.0% w/v, 0 min): 0.0 ± 0.0 mmHg | IOP changes (mean ± SEM) in the untreated eye ([1]; 1.0% w/v, 30 min): 2.2 ± 0.9 mmHg | IOP changes (mean ± SEM) in the untreated eye ([1]; 1.0% w/v, 60 min): 1.2 ± 1.2 mmHg | IOP changes (mean ± SEM) in the untreated eye ([1]; 1.0% w/v, 120 min): 1.0 ± 0.8 mmHg | IOP changes (mean ± SEM) in the untreated eye ([1]; 1.0% w/v, 180 min): −2.5 ± 1.3 mmHg | IOP changes (mean ± SEM) in the untreated eye ([1]; 1.0% w/v, 240 min): −1.8 ± 0.6 mmHg | IOP changes (mean ± SEM) in the untreated eye ([1]; 1.0% w/v, 300 min): −0.7 ± 0.8 mmHg | IOP changes (mean ± SEM) in the untreated eye ([1]; 1.0% w/v, 360 min): −0.2 ± 1.1 mmHg | IOP changes (mean ± SEM) in the untreated eye ([1]; 1.0% w/v, 420 min): −0.9 ± 1.0 mmHg | IOP after water loading versus control animals [2]: IOP value significantly lower than control animals
